Measurements reported in US12390449B2, “Substituted 2-aminobenzimidazoles analogs as antibiofilm agents” (priority 2018, dated 2025).
Entries after “also recorded” stand apart in the source; their conditions may differ. Structures can show the parent of a compound that is named as a salt. Where two headings read alike, the source gives them in different places.

Assays:
[1] = system: Salmonella typhimurium ATCC14028 Biofilms; assay: Inhibitory effect of test compounds on Salmonella typhimurium ATCC14028 biofilms (crystal violet, 96-well); format: cell-based
Procedure: Procedure to Determine the Inhibitory Effect of Test Compounds on Salmonella typhimurium ATCC14028 Biofilms: […] Stock solutions of predetermined concentrations of the test compounds were then made in 1 mL of bacterial culture. […] Sample plates were then incubated for 24 h at 30° C. After incubation, the medium was discarded from the wells and the plates were washed thoroughly with water. Plates were then stained with 110 μL of 0.1% solution of crystal violet (CV) and then incubated at ambient temperature for 30 min. Plates were washed with water again and the remaining stain was solubilized with 200 μL of 95% ethanol. A sample of 125 μL of solubilized CV stain from each well was transferred to the corresponding wells of a polystyrene microtiter dish. Biofilm inhibition was quantitated by measuring the OD540 of each well in which a negative control lane wherein no biofilm was formed served as a background and was subtracted out.

[2] = system: Galleria mellonella larvae; assay: Toxicity assay in Galleria mellonella larvae; format: in vivo; settings: 400 mg kg^−1
Procedure: FIGS. 5A-5B show representative toxicity data obtained for a representative disclosed compound. […] Briefly, S. typhimurium (JSG210) was grown in the presence of a representative disclosed compound, compound M4, present at a concentration of 10 μM for 24 hours, followed by determination of viability measured by drip plating at T=0, 2, 5, 15, 20, 24 hours. 3 biological replicates were tested. […] Briefly, a representative disclosed compound, compound M4, was injected into last left proleg of Galleria mellonella larvae at 400 mg/kg and assessed at 24-hour intervals over 5 days. The study was repeated 3 times using 10 larvae per experiment group.
Toxicity was measured by drip plating and counting cfu/mL.

[3] = system: S. typhimurium ATCC 14028; assay: Growth curves, planktonic bacterial growth; format: cell-based; settings: at their IC50 values; hydrochloride
Procedure: Growth Curves: S. typhimurium was grown overnight in TSB, and this culture was used to inoculate fresh 1:20 TSB (OD600=0.08). Inoculated medium was aliquoted (3 mL) into culture tubes, and compound was added, with untreated inoculated medium serving as the control. Tubes were incubated at 30° C. with shaking. Samples were taken at 2, 4, 6, 8, and 24 h time points, serially diluted in fresh 1:20 TSB, and plated on nutrient agar. Plates were incubated at 37° C. overnight in stationary conditions, and the number of colonies was enumerated.

[4] = Salmonella enterica, 24 h, read-out: IC50 (μM), inhibition of biofilm formation, S. typhimurium ATCC14028, 24 h at 30° C., crystal violet OD540
[5] = read-out: IC50 (μM), inhibition of biofilm formation, S. typhimurium ATCC14028, 24 h at 30° C., crystal violet OD540, hydrochloride

Structure (SMILES) | IC50 [1, 4] | IC50 [1, 5] | toxicity to G. mellonella [2] | IC50 ([1]; read-out: IC50 (μM), inhibition of biofilm formation, S. typhimurium ATCC14028, 24 h at 30° C., crystal violet OD540, listed as 15d, hydrochloride) | toxicity to planktonic bacterial growth [3]
Cl.Nc1nc2cc(NC(=O)c3cc(Cl)cc(Cl)c3)ccc2n1CCCc1ccccc1 [Compound 10e, N-(2-Amino-1-(3-phenylpropyl)-1H-benzo[d]imidazol-5-yl)-3,5-dichlorobenzamide hydrochloride] | 10 to 15 µM | 13.3 ± 0.49 µM | no toxicity |  | 
Cl.Nc1nc2cc(NC(=O)c3ccc(Cl)c(Cl)c3)ccc2n1CCCc1ccccc1 [Compound 10d, N-(2-Amino-1-(3-phenylpropyl)-1H-benzo[d]imidazol-5-yl)-3,4-dichlorobenzamide hydrochloride] | < 7 µM | 6.3 ± 1.29 µM | no toxicity | 6.3 ± 1.29 µM | 
Cl.Nc1nc2cc(NC(=O)Nc3ccc(Cl)c(Cl)c3)ccc2n1CCCc1ccccc1 [Compound 20, 1-(2-Amino-1-(3-phenylpropyl)-1H-benzo[d]imidazol-5-yl)-3-(3,4-dichlorophenyl)urea hydrochloride] | 7.69 ± 0.25 µM |  |  |  | no toxicity; also recorded: non-toxic
CCCCCOc1ccc(C(=O)Nc2ccc3c(c2)nc(N)n3CCCc2ccccc2)cc1.Cl [Compound 10a, N-(2-Amino-1-(3-phenylpropyl)-1H-benzo[d]imidazol-5-yl)-4-pentoxybenzamide hydrochloride] | 5.22 ± 0.11 µM |  |  |  | no toxicity; also recorded: non-toxic
CCCCCCCCC(=O)Nc1ccc2c(c1)nc(N)n2CCCc1ccccc1 [Compound 10n, N-(2-Amino-1-(3-phenylpropyl)-1H-benzo[d]imidazol-5-yl)nonanamide hydrochloride] | 15 to 20 µM |  |  |  | 
CCCCCCn1c(N)nc2ccc(NC(=O)c3ccc(CCCCC)cc3)cc21 [Compound 9b, N-(2-Amino-1-hexyl-1H-benzo[d]imidazol-6-yl)-4-pentylbenzamide hydrochloride] | 10 to 15 µM |  |  |  | 
